Data set [1] can be described thus: Study of stability in plasma (disappearance of the conjugate by HPLC). Particulars: 37° C. The procedure: The mixture was quenched with a CH3CN/MeOH mixture (800 μL) in a ratio of 1:1, swirled for 1 minute, and then filtered through a 0.2 μm filter membrane. 30 μl of the resulting filtrate was analyzed by HPLC, to measure the disappearance of the conjugate.
The test system of a further data set is A549. Kind of data set: cells. The note with it: Homo sapiens, A549, read-out: IC50 A549. The procedure:
(§1) All cell lines were obtained from the American Type Culture Collection, and grown in the following media: COLO 205 and OVCAR-3 (RPMI 1640, containing 4.5 g/L glucose, 10 mM HEPES, 1 mM sodium pyruvate, 10% FBS); HT-29 (McCoy's 5a, containing 1.5 mM L-glutamine, 10% FBS); A549 (Ham's F12K, containing 10% FBS). All cell lines were maintained in an incubator at 37° C. containing 5% CO2. […] Briefly, the day before the start of the experiment the cells were incubated in a 96-well plate in a quantity of 10,000-20,000/well. […] At the end of the incubation period, an MTS dye was added, and then the colored product formazane as formed was measured by a Spectramax 340PC reader (Molecular Devices, CA) at 490 nm.
(§2) A interval was less than 0.100 μM; B interval was greater than 0.100 μM but less than 0.500 μM; C interval was greater than 0.500 μM but less than 2.000 μM; D interval was greater than 2.000 μM.

For a further data set, the system named is COLO 205. Kind of data set: cells. The note with it: Homo sapiens, COLO 205, read-out: IC50 COLO205. The procedure: as §1, §2
For a further data set, the system named is HT-29. Nature of the data set: cells. Particulars: Homo sapiens, HT-29, read-out: IC50 HT 29. The procedure: as §1, §2
For the next data set, the system named is OVCAR-3. Nature of the data set: cells. Particulars: Homo sapiens, OVCAR-3, read-out: IC50 OVCAR3. The procedure: as §1, §2
The conditions of data set [2]: cited from earlier work.
The conditions of data set [3]: loss of midline facial features, uniocular, lack of anatomical features from forebrain; cited from earlier work.

Each structure is given as a SMILES string. Some results are limits rather than exact numbers.

Broadly, the IC50 is the concentration needed to halve the response being measured.

With `CC1=C2C[C@H]3[C@@H](CC=C4C[C@@H](O)CC[C@@]43C)[C@@H]2CC[C@]12O[C@@H]1C[C@H](C)CN[C@H]1[C@H]2C` [cyclopamine], the “disappearance % 2 h” value in data set [1] (2 h) was determined as 32%. The “disappearance % 4 h” value in data set [1] (4 h) was found to be 68%. Also, the “disappearance % 24 h” value in data set [1] (24 h) was determined as 83%. In addition, the IC50 in the data set with A549 was over 2000 nM; in the data set on COLO 205 it was 100 to 500 nM; in the data set with HT-29, 100 to 500 nM; in the data set on OVCAR-3, 100 to 500 nM. Also, the “chemical stability at low pH” value in data set [2] is recorded as “chemically instable”. The teratogenicity result in data set [3] was “teratogenic”.
